This assay concerns the target T1, human Edg-1 receptor (Homo sapiens, UniProt P21453).
T1 construct: FLAG (N); expressed in transfected cells; membrane preparation
The assay is described as follows: GTP-γ-S assay using human Edg-1 receptors (scintillation proximity assay, CHO Flp-In membrane preparation). Format: biochemical. The note with it: test compound at 10 μM; high control 10 μM S1P = 100% activation; membranes of CHO Flp-In cells overexpressing human Edg-1; read-out: % activation (Edg-1 receptor activation in percent of the activation by 10 μM S1P). From the text: A) GTP-γ-S Assay Using Human Edg-1 Receptors
In order to determine the Edg-1 receptor activation by the compounds of the invention, a GTP-γ-S (GTP-γ-S=guanosine 5′-[thio]triphosphate) assay for G-protein coupled receptor binding based on the scintillation proximity assay principle was used, employing a cell membrane preparation from a CHO Flp-In cell line which constitutively overexpresses the human Edg-1 receptor.
A membrane preparation was obtained by standard methods from the aforedescribed CHO Flp-In cell line constitutively overexpressing the human Edg-1 receptor. Briefly, the cryopreserved cells were taken in culture and grown until confluency in T175 cell culture flasks (Becton Dickinson, cat. no. 35 5001). Cell culture was stopped by washing with calcium-free phosphate-buffered saline (PBS; Gibco, cat. no. 14190), and cells were harvested with a rubber-policeman in 4° C. cold and calcium-free PBS supplemented with a protease inhibitor cocktail (complete protease inhibitor; Roche, cat. no. 1697498; 1 tablet per 50 ml) and subsequently centrifuged at 4° C. for 15 min at 1100×g (Heraeus Minifuge T). For cell lysis, the pellet was resuspended in a 4° C. cold hypotonic buffer consisting of 5 mM HEPES (Sigma-Aldrich, cat. no. H-0981), 1 mM EDTA (disodium salt; Merck, cat. no. 8418) supplemented with protease inhibitor cocktail (as above) in which cells were stored for another 15 min on ice. After lysis, cells were centrifuged at 4° C. for 10 min at 400×g (Heraeus Minifuge T). The pellet was disrupted in a Dounce homogenizer, diluted with the supernatant of the previous centrifugation and subsequently centrifuged at 4° C. for 10 min at 500×g (Heraeus Minifuge T) in order to separate nuclei and still intact cells from the membranes mainly present in the supernatant. The supernatant was then diluted in hypotonic buffer and centrifuged (Beckmann, Avanti J251) at approximately 18600×g for 2 h at 4° C. After centrifugation, the membrane pellet was resuspended in a storing buffer consisting of 20 mM HEPES; 150 mM NaCl (Merck, cat. no. 6400), 1 mM EDTA (as above) supplemented with protease inhibitor cocktail (as above). The membrane preparation was aliquoted and stored at −80° C. Protein concentration of the membrane preparation was determined in a sample by means of a commercial protein assay (Bio-Rad, DC Protein Assay, cat. nos. 500-0113, 500-0114, 500-0115).
The Edg-1 membrane preparation obtained in (b) was employed in a commercially available scintillation proximity assay (SPA) kit for G-protein coupled receptor binding from Amersham Biosciences/GE Healthcare (code RPNQ0210), in which ligand-induced binding of ^35S-radiolabeled GTP-γ-S to the receptor-containing membrane, which is bound to scintillation beads, stimulates the emission of light and allows the quantification of the in vitro activity of the Edg-1 agonistic compound. The assay was performed on a 96-well plate substantially according to the manufacturer's instructions. Before starting the experiments, scintillation beads were suspended in a reconstitution buffer consisting of Tris-HCl (pH 7.4) supplemented with 0.1% (w/v) sodium azide and subsequently diluted on ice with assay buffer (consisting of 20 mM HEPES, 100 mM NaCl, 1 mM EDTA (as above), 1 mM dithiothreitol (DTT), adjusted to pH 7.4) to a final bead concentration of 30 mg/ml.
Wells were charged with 10 μl of the specified assay buffer, 10 μl of a 100 μM guanosine diphosphate (GDP) solution, and 10 μl of a solution of the test compound in assay buffer/dimethyl sulfoxide resulting in a final concentration of the test compound of 10 μM. For the high controls, 10 μl of a solution of sphingosine-1-phosphate (S1P; Sigma, cat. no. S-9666), resulting in a final S1P concentration of 10 μM, and for the low controls 10 μl of assay buffer, was added into the respective wells instead of the solution of the test compound. All wells contained equivalent amounts of dimethyl sulfoxide. […]
T1 sequence (P21453 whole entry): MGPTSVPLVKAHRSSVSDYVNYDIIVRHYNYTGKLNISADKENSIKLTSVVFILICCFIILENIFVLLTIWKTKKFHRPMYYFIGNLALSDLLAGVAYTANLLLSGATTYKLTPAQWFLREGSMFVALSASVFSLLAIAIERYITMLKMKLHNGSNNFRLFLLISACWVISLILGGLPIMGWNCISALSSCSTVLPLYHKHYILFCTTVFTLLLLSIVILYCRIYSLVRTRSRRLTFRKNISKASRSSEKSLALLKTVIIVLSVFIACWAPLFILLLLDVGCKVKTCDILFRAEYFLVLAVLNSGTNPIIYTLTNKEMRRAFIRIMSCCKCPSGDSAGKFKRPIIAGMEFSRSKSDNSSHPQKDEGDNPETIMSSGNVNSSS
With `CCCc1nc(Oc2cc(F)ccc2F)nc2oc(-c3cc(C)c(OCC(=O)O)c(C)c3)nc12` [Example 1, {4-[5-(2,5-Difluorophenoxy)-7-propyloxazolo[5,4-d]pyrimidin-2-yl]-2,6-dimethylphenoxy}acetic acid], the activation at 10 µM is 94%.

On to `CCCc1nc(OCCC(F)(F)F)nc2oc(-c3cc(C)c(OCC(=O)O)c(C)c3)nc12` [Example 2, {2,6-Dimethyl-4-[7-propyl-5-(3,3,3-trifluoropropoxy)oxazolo[5,4-d]pyrimidin-2-yl]phenoxy}acetic acid], for which the activation at 10 µM was determined as 97%.

Regarding `Cc1cc(-c2nc3c(CC(C)C)nc(Oc4ccccc4F)nc3o2)cc(C)c1OCC(=O)O` [Example 3, {4-[5-(2-Fluorophenoxy)-7-isobutyloxazolo[5,4-d]pyrimidin-2-yl]-2,6-dimethylphenoxy}acetic acid], the activation at 10 µM came to 92%.

As for `Cc1cc(-c2nc3c(CC(C)C)nc(OCCC(F)(F)F)nc3o2)cc(C)c1OCC(=O)O` [Example 4, {4-[7-Isobutyl-5-(3,3,3-trifluoropropoxy)oxazolo[5,4-d]pyrimidin-2-yl]-2,6-dimethylphenoxy}acetic acid], the activation at 10 µM was determined as 106%.

Turning to `Cc1cc(-c2nc3c(CC(C)C)nc(Oc4cccc(Cl)c4)nc3o2)cc(C)c1OCC(=O)O` [Example 5, {4-[5-(3-Chlorophenoxy)-7-isobutyloxazolo[5,4-d]pyrimidin-2-yl]-2,6-dimethylphenoxy}acetic acid], the activation at 10 µM turned out to be 86%.

In the case of `CCCc1nc(Oc2cccc(Cl)c2)nc2oc(-c3cc(C)c(OCC(=O)O)c(C)c3)nc12` [Example 6, {4-[5-(3-Chlorophenoxy)-7-propyloxazolo[5,4-d]pyrimidin-2-yl]-2,6-dimethylphenoxy}acetic acid], the activation at 10 µM was determined as 118%.

For `Cc1cc(-c2nc3c(CC(C)C)nc(Cc4ccc(Cl)cc4)nc3o2)cc(C)c1OCC(=O)O` [Example 7, {4-[5-(4-Chlorobenzyl)-7-isobutyloxazolo[5,4-d]pyrimidin-2-yl]-2,6-dimethylphenoxy}acetic acid], the activation at 10 µM is 38%.

For the compound `Cc1cc(-c2nc3c(CC(C)C)nc(Cc4ccccc4)nc3o2)cc(C)c1OCC(=O)O` [Example 8, [4-(5-Benzyl-7-isobutyloxazolo[5,4-d]pyrimidin-2-yl)-2,6-dimethylphenoxy]acetic acid], the activation at 10 µM came out at 98%.

In the case of `Cc1cc(-c2nc3c(C(C)C)nc(Cc4ccc(Cl)cc4)nc3o2)cc(C)c1OCC(=O)O` [Example 9, {4-[5-(4-Chlorobenzyl)-7-isopropyloxazolo[5,4-d]pyrimidin-2-yl]-2,6-dimethylphenoxy}acetic acid], the activation at 10 µM came to 90%.

The record behind these values is patent publication US9321787B2, “Carboxylic acid derivatives having an oxazolo[5,4-d]pyrimidine ring” (SANOFI, priority 2011, dated 2016).
